Each structure is given as a SMILES string.

What is called melting point is the temperature, or range, at which the solid turns liquid. Take `CC(C)[C@H]1CC[C@H](C(=O)COS(=O)(=O)c2ccccc2)CC1`: the melting point lay within 48 to 49 °C.

`COc1ccc(CCNC(=O)Cc2ccc(C(=O)c3ccccc3)cc2)cc1OC` displayed a melting point of 113 to 114 °C.

In turn, `CCOC(=O)C(C=C(C)CP(=O)(OCCCl)OCCCl)NC=O` (stereo not drawn) yielded a melting point of 47 to 49 °C.

Regarding `CCn1c(=O)c2[nH]c(/C=C/c3ccc(OC)c(C)c3)nc2n(CC)c1=O`, the melting point was > 270 °C.

For the molecule `COc1ccc(-c2cc(OCC(=O)O)nc(Nc3ccc(OC)c(Cl)c3)n2)cc1`, the melting point fell in the range of 258 to 260 °C.

Turning to `CSC(=S)C12CC3CC(CC(C3)C1)C2`, the melting point lay in the range of 64.5 to 66 °C.

As to `Cn1ncc(/C=C/C(=O)Nc2ccc(Cc3nnco3)cc2)c1-c1ccc(F)cc1`, the melting point was in the range of 223 to 224 °C.

In the case of `CCOc1cc(C(CS(C)(=O)=O)N2C(=O)c3cccc(NS(C)(=O)=O)c3C2=O)ccc1OC` (stereo not drawn), the melting point lay in the range of 191 to 193 °C.

Molecule `Nc1cc(N2C(=O)c3ccccc3C2=O)c(F)cc1Cl` came in with a melting point of 148 °C.

Regarding `O=C(Nc1cc2ncc(CN3CCCC3)cc2cc1F)c1ccc(Br)cc1F`, the melting point was 149 to 151 °C.

Take `CC(OC(=O)Nc1ccc(-c2ncn(-c3ccc(OC(F)(F)F)cc3)n2)cc1)C(F)(F)C(F)(F)F` (stereo not drawn): the melting point was 171 to 173 °C.

Molecule `CCN(C)C(=O)c1cnn(-c2cccc(C#N)c2)c1C#N` yielded a melting point of 185 to 187 °C.

As for `CCC(=NO)c1ccccc1O`, the melting point was 88 to 90 °C.

For the molecule `CCCOc1ccc(CCC(=O)N2CCOCC2)cc1-c1nc2c(c(C)nn2CCC)c(=O)[nH]1`, the melting point lay within 132 to 133 °C.

In turn, `C[C@@H](n1cnc2cc(N3CCN(c4ccc(Cl)cc4)CC3)c(F)cc2c1=O)[C@](O)(Cn1cncn1)c1ccc(F)cc1F` yielded a melting point of 130 to 133 °C.

On to `O=C(NC(O)C(F)(F)F)c1snc(Cl)c1Cl` (stereo not drawn), for which the melting point lay in the range of 90 to 93 °C.

On to `N#Cc1ccc(-c2nc(-c3ccc(F)cc3)c(-c3ccnc4ccccc34)[nH]2)cc1`, for which the melting point fell in the range of 294 to 295 °C.

As for `Cc1c(C)c2c(c(C)c1NC(=O)CC(C)(C)C)C(c1ccc(CC(C)C)cc1)CO2` (stereo not drawn), the melting point lay within 153 to 154 °C.

`CC1CCC(=O)N1CC(=O)NCCN(C(C)C)C(C)C` (stereo not drawn) gave a melting point of 73 to 74 °C.

Take `COC(=O)/C=C/C=C(\c1ccc(OC)cc1)c1cccnc1`: the melting point fell in the range of 75 to 76 °C.

Turning to `O=C(OCC1CO1)c1c(Br)c(Br)c(C(=O)OCC2CO2)c(Br)c1Br` (stereo not drawn), the melting point was 161 °C.

Turning to `Cc1ccccc1N1CCc2c(C)nc3c(O)cccc3c21`, the melting point lay within 144 to 146 °C.

The molecule `O=c1ccc2c(O)cccc2o1` registered a melting point of 224 to 225 °C.

`Cc1ccc(S(=O)(=O)OC[C@H]2CC[C@H](C#N)CC2)cc1` had a melting point of 84 to 85 °C.

On to `CN1C(=O)C(S)=C(S)C1=O`, for which the melting point lay within 145 to 148 °C.

In the case of `OC1c2cc(OCc3nc4cc(F)ccc4s3)ccc2OCC1Oc1ccccc1` (stereo not drawn), the melting point is 144 to 145 °C.

`O=C1N(c2ccc(Cl)cc2F)C(=S)C2CCCCC12O` (stereo not drawn) displayed a melting point of 156 to 157 °C.

For `O=S(=O)(c1ccc2ccccc2c1)N1CCCC1c1ccc(F)cc1` (racemic), the melting point was 166 °C.

`Cc1nc2c(OCc3c(Cl)ccc(S(=O)(=O)N4CCC[C@H]4C(=O)NCCCNC(=O)c4ccc(C#N)cc4)c3Cl)cccn2c1Cl`: the melting point was found to be 115 °C.

As for `CNc1nc(Br)cnc1N`, the melting point is 121 °C.

`CC1(C)C(=O)Nc2ccccc2C1(O)c1ccccc1` (stereo not drawn) had a melting point of 185 to 187 °C.

`CC(C)(C)OC(=O)NC1CCCCc2cc(OCC3CCCCC3)c(Br)cc21` (stereo not drawn) yielded a melting point of 142 to 144 °C.

As to `CN(C)C(=O)c1cnn(-c2c(Cl)cc(Cl)cc2Cl)c1N`, the melting point lay in the range of 226 to 228 °C.

`O=C(Nc1ccc(C(=O)N2Cc3ccccc3Cc3ccccc32)cc1)c1cc(Cl)cc(Cl)c1Cl` had a melting point of 225 to 230 °C.

With `CC1CCCC(C)C1NSc1nc2ccccc2s1` (stereo not drawn), the melting point fell in the range of 75 to 93 °C.

As for `CCc1cn(C2CC(O)C(CN(C)C(=O)Cc3ccccc3Br)O2)c(=O)[nH]c1=O` (stereo not drawn), the melting point is 182 to 185 °C.

As to `O=C(COc1cccc(-n2nc(-c3ccc(F)cc3)c3cccnc32)c1)N1CCOCC1`, the melting point lay in the range of 141 to 143 °C.

Molecule `Cc1ccc(S(=O)(=O)N(C)c2ccc(Cl)cc2CO)cc1` gave a melting point of 130 to 132 °C.

In turn, `Cc1cccc(NC(=O)NC2N=C(C3CCCCC3)c3ccccc3N(Cc3ccccn3)C2=O)c1` (stereo not drawn) yielded a melting point of 157 to 163 °C.

`CCc1n[nH]c(-c2ccccc2)c1NC(=O)c1ccccc1`: the melting point fell in the range of 215 to 216 °C.

In the case of `CN1C(=O)C2CCCCC2N=C1c1ccccc1` (stereo not drawn), the melting point was in the range of 79 to 82 °C.

`CCCCc1noc(-c2cccc(NC(=O)N(C)C)c2)n1` returned a melting point of 108 to 110 °C.

Molecule `COc1ccc(CN2C=CC=C3C2=Nc2cc(C(F)(F)F)ccc2S(=O)(=O)N3C)cc1` showed a melting point of 142 to 143 °C.

Regarding `Cc1ccc(-c2ccc(C(=O)Nc3ccc4nc(CN5CCCC5)ccc4c3)cn2)cc1`, the melting point lay in the range of 207 to 209 °C.

`Cn1c(COc2ccc(CC3SC(=O)N(C(c4ccccc4)(c4ccccc4)c4ccccc4)C3=O)cc2)nc2ccc(Cl)nc21` (stereo not drawn): the melting point was in the range of 97 to 99 °C.

Molecule `Cc1cccc(C#Cc2cccc(C#N)c2)n1` returned a melting point of 120 to 123 °C.

In turn, `O=c1oc(-c2ccccc2)cc(O)c1SCC1CC1` registered a melting point of 136 to 137 °C.

`COc1ccc(/C=C(\C#N)c2ccccc2[N+](=O)[O-])cc1OC1CCCC1`: the melting point was in the range of 95.5 to 97 °C.

On to `C=CC(=O)NC1CC(C)(C)N(C=CC(=O)OCC)C(C)(C)C1`, for which the melting point was 123 to 125 °C.

On to `O=C(NCc1ncc(C(F)(F)F)cc1Cl)c1c(Cl)ccnc1Cl`, for which the melting point was 122 to 124 °C.

`Fc1ccc2[nH]c(CC3CCN(CC4CCc5ccccc5O4)CC3)cc2c1` (stereo not drawn) displayed a melting point of 187 to 190 °C.

Turning to `CC(C)(C)C=CC1=C(O)C(=O)c2ccccc2C1=O`, the melting point was 126 to 128 °C.

`Cc1cnc2c(Br)c(NC3=NCCN3)ccc2n1` yielded a melting point of 260 °C.

On to `CC1(C)CC(OC(=O)c2ccccc2)CC(C)(C)N1CC#N`, for which the melting point was 147 °C.

Turning to `COc1cccc([C@H]2O[C@H](CC(=O)Nc3cc(CCC(=O)O)ccc3OC(C)C)C(=O)N(CC(C)(C)CO)c3ccc(Cl)cc32)c1OC`, the melting point fell in the range of 133 to 136 °C.

`CC(C)(C)OC(=O)N[C@@H]1C(=O)N[C@H]1C1CCCCC1` (relative stereo) registered a melting point of 130 to 132 °C.

`Nc1ncnc2cc(-c3ccc(C(F)(F)F)cc3)sc12` showed a melting point of 181 to 194 °C.

`COc1cc(OCC(=O)N[C@@H]2CCN(Cc3ccccc3)C2)ccc1C=O`: the melting point lay within 98 to 101 °C.

Take `Cn1cncc1C(O)(c1ccc(Cl)cc1)c1ccc2[nH]c(=O)cc(-c3cccnc3)c2c1` (stereo not drawn): the melting point was > 250 °C.

`COc1ccc2c(c1OS(=O)(=O)C(F)(F)F)COCc1cc(OC)c(OC)c(OC)c1-2` came in with a melting point of 164 °C.

With `CC(=O)NC(=O)C(Cl)Cc1ccc(OCC(C)(C)c2ccccc2)cc1` (stereo not drawn), the melting point lay in the range of 125 to 126 °C.

`COc1ccc(-c2nc3cnccc3[nH]2)cc1S(C)=O` (stereo not drawn) had a melting point of 227 to 229 °C.

With `COC(=O)c1c(C)nc(-c2ccccc2)nc1-c1cccc([N+](=O)[O-])c1`, the melting point was in the range of 128 to 130 °C.

The molecule `CCCc1c(OCCCCCCc2ccc(O)c(O)c2Cl)ccc(C(=O)O)c1O` yielded a melting point of 145 to 146 °C.

`Cc1ccc(S(=O)(=O)NCCNC(C)C)cc1` displayed a melting point of 76 to 78 °C.

Consider `CC(=O)OCc1ccccc1/C(=N\O)C(N)=O`, for which the melting point was in the range of 112 to 114 °C.

Molecule `CC1(C)OC(c2ccc(S(N)(=O)=O)c(Br)c2)=C(c2ccccc2)C1=O` displayed a melting point of 128 to 132 °C.

`CN(C)c1ccc(NC(=O)N(CCC2=CCCCC2)C[C@H]2CCC[C@H](CN(CCC3=CCCCC3)C(=O)Nc3ccc(N(C)C)cc3)C2)cc1` (relative stereo) had a melting point of 80 to 83 °C.

`CCC(=CC(CNC(C)=O)=NO)C(C)[N+](=O)[O-]` (stereo not drawn) had a melting point of 124 to 125 °C.

For `CC(C)(C)OC(=O)N1CCn2c(c(C(N)=O)c(C#N)c2-c2ccccc2)C1`, the melting point lay within 214 to 215 °C.

The molecule `CCCCCCCCCCCCCCOc1cc(OCCCCCCc2cccc(O)c2O)cc(C(=O)O)c1` displayed a melting point of 92 to 94 °C.

In the case of `CCOC(=O)C1=C(C)NC(CSCCl)=C(C(=O)OCC)C1c1cccc([N+](=O)[O-])c1` (stereo not drawn), the melting point was 157 to 159 °C.

`COC(=O)c1cc(NC(C)=O)ccc1O` showed a melting point of 147 to 148 °C.

`Cc1ccc(S(=O)(=O)NCC2(N3CCN(C)CC3)CCCCC2)cc1` showed a melting point of 128 to 130 °C.

For `Cc1cnc(CNC(=O)c2sc(N3CCN(Cc4ccc(C(F)(F)F)cc4)C3=O)nc2C)cn1`, the melting point was in the range of 172 to 173 °C.

As to `Nc1cc(Br)c(Br)cc1N`, the melting point was 189 to 190 °C.

For the molecule `CCOC(=O)/C(=N\O[C@H]1CC[C@H](Cl)CC1)c1csc(N)n1`, the melting point was determined as 155 °C.

With `O=C1NC(=O)C(Cc2ccc(OCc3cn4ccccc4n3)cc2)S1` (stereo not drawn), the melting point was 197 to 202 °C.

Take `Cn1cncc1C(O)(c1ccc(Cl)cc1)c1ccc2c(c1)c(-c1cccs1)cc(=O)n2C` (stereo not drawn): the melting point was > 260 °C.

The molecule `CCCC(C)(C)NC(=O)n1nc(C)n(N)c1=O` had a melting point of 110 °C.

Regarding `CCO/C(=N/O)C1Cc2cc(C(=O)CC)c(O)c(Cl)c2O1` (stereo not drawn), the melting point was 146 to 147 °C.

`CC(C)C(=O)NC[C@H]1CN(c2ccc3c(c2)CCCc2cnn(C(=O)C(C)C)c2-3)C(=O)O1` gave a melting point of 75 to 80 °C.

`C=Cn1cc(C(=O)O)c(=O)c2cc(F)c(N3CCC(N)C3)nc21` (stereo not drawn) showed a melting point of 253 to 257 °C.

Consider `O=C(O)COc1ccc(OCCCCc2ccccc2)cc1`, for which the melting point lay in the range of 116 to 117 °C.

Molecule `CCC(C)(O)CCC1C(C)(OC(C)=O)CCC2C(C)(C)CCCC21C` (stereo not drawn) yielded a melting point of 92 to 94 °C.

`CCCP(=O)(O)CC(=O)CNCc1ccccc1`: the melting point lay in the range of 155 to 157 °C.

`CCCOC(=O)c1cccc(CCN(C)CCCC(C#N)(c2ccc(OC)c(OC)c2)C(C)C)c1` (stereo not drawn) showed a melting point of 110 to 114 °C.

For `Cc1c(C(=O)O)cnn1-c1cc(C(F)(F)F)ccc1Cl`, the melting point is 124 to 125 °C.
